Test results taken from US9938261B2, “Heterocyclic compounds and methods of use thereof” (AMBIT BIOSCIENCES CORPORATION, priority 2011, dated 2018).

Tests used:
M-NFS-60 cells = experiment: M-NFS-60 cell proliferation assay (Alamar Blue); assay type: cell-based, mouse; conditions: Mus musculus; 72 hours incubation, M-CSF 20 ng/mL; read-out: CSF1R M-NFS-60 CTB:IC50
Method in brief: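 Mouse M-NFS-60 cells growing on 20 ng/mL M-CSF in RPMI/10% FBS were exposed to compounds (9 half-log concentrations, 0.5% DMSO) for 72 h at 37 °C. Viability read by Alamar Blue fluorescence (ex 560/em 590 nm, 3 h). IC50 = 50% proliferation inhibition versus control, mean of duplicates.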

CSF1R [1] = molecular target: T1, CSF1R (Homo sapiens, UniProt P07333); experiment: Competition binding assay, CSF1R Kd; set-up: made in house
T1 sequence (P07333 20-972): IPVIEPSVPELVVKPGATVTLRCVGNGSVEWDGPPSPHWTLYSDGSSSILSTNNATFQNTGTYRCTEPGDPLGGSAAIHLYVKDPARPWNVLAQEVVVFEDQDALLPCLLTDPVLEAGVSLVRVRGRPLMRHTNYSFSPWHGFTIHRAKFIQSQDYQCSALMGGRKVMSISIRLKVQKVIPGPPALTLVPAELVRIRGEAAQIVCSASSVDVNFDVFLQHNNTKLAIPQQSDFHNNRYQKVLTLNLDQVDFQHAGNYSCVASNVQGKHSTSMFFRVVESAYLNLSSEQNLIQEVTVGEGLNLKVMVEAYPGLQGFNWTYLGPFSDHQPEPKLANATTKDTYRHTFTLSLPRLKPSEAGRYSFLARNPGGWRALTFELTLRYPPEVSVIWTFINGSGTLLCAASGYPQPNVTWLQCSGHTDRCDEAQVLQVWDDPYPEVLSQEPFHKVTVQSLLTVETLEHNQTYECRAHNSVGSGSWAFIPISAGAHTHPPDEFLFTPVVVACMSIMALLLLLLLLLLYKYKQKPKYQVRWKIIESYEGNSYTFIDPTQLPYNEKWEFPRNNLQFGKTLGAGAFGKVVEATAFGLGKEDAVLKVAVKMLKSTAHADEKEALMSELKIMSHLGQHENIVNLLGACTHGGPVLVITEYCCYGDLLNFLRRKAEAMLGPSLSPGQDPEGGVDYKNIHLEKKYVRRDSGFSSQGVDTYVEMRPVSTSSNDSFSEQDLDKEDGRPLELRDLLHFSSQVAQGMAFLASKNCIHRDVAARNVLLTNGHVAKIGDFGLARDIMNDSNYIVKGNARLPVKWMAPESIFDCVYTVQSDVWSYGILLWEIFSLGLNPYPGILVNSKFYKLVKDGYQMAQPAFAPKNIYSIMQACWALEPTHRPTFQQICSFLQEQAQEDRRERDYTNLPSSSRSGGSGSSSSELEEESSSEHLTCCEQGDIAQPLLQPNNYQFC
Method in brief: (§1)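 Kd values came from eleven-point threefold dilutions of compound, measured by qPCR of kinase eluted from affinity-ligand beads after 1 h equilibrium binding at room temperature. Kinase was either T7-phage fused or HEK-293-expressed with a DNA tag.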

CSF1R [2] = molecular target: T1, CSF1R; experiment: HEK293 CSF1R phosphorylation MSD assay; assay type: cell-based; set-up: expressed in transfected cells; host or cells: HEK293; conditions: 2 h compound, human M-CSF 50 ng/mL for 5 min; read-out: HEK293 pCSF1R M-CSF MSD:IC50
Method in brief: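 HEK293 cells expressing CSF1R-FKBP were pretreated 2 h at 37° C with 9 half-log concentrations of compound (0.5% DMSO final), then stimulated 5 min with 50 ng/mL human M-CSF. Lysates captured on biotin-FK506 plates; phosphotyrosine detected by MSD electrochemiluminescence. IC50 versus DMSO, averaged from duplicate plates.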

FLT3 = molecular target: T2, FLT3 (Homo sapiens, UniProt P36888); experiment: Competition binding assay, FLT3 Kd
T2 construct: made in house
T2 sequence (P36888 27-993): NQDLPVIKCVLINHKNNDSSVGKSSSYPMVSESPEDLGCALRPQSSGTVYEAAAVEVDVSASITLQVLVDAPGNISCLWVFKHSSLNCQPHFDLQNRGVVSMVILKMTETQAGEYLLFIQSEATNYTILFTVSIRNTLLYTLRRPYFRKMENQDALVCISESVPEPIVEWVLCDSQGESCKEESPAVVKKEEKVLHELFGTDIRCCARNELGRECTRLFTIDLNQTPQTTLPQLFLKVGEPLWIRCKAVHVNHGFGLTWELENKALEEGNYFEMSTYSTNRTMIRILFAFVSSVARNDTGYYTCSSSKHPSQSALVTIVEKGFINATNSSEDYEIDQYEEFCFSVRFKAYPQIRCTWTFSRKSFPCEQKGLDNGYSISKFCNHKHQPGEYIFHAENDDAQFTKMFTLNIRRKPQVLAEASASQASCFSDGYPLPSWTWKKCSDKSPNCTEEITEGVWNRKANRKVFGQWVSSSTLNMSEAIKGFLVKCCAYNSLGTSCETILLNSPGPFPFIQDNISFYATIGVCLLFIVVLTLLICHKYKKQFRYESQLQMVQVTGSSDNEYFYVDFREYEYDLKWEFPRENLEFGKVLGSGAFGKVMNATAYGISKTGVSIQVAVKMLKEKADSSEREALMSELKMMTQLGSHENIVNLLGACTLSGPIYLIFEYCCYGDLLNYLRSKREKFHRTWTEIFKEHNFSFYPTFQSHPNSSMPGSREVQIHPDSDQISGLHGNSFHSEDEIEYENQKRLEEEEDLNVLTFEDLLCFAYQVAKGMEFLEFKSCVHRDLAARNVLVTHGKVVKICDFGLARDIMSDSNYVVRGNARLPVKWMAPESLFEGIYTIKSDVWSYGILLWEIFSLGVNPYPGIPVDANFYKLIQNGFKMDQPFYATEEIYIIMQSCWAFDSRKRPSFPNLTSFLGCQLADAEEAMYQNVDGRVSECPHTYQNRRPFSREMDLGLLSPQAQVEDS
Method in brief: as §1

PDGFRβ = molecular target: T3, PDGFRβ (Homo sapiens, UniProt P09619); experiment: Competition binding assay, PDGFRβ Kd
T3 construct: made in house
T3 sequence (P09619 33-1106): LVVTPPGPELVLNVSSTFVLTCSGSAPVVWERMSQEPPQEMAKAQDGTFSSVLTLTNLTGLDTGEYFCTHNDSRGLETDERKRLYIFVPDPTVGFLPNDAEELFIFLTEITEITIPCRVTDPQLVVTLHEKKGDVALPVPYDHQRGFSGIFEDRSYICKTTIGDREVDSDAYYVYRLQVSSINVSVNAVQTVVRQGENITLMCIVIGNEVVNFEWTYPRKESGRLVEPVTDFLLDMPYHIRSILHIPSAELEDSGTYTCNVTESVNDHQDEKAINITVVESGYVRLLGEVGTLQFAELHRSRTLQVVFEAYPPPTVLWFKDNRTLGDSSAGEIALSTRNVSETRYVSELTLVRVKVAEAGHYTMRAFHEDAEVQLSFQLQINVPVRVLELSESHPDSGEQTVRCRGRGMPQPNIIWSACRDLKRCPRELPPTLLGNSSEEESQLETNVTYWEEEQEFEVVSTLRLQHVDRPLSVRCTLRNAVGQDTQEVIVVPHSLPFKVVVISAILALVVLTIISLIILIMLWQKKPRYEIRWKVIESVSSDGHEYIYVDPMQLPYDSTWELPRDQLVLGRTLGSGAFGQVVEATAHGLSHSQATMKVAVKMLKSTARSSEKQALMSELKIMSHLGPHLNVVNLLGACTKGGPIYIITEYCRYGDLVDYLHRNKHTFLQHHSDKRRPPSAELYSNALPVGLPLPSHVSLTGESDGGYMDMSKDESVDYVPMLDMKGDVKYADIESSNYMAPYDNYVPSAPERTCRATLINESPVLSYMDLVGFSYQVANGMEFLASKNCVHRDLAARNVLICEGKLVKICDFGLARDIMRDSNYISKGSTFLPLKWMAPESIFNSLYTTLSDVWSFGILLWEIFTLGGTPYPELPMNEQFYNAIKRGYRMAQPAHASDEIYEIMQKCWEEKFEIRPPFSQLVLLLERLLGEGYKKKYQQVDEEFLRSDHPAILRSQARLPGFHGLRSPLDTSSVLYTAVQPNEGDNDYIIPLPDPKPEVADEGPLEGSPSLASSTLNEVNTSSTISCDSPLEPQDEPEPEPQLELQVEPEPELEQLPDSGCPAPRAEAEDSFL
Method in brief: as §1

KIT = molecular target: T4, KIT (Homo sapiens, UniProt P10721); experiment: Competition binding assay, KIT Kd
T4 construct: made in house
T4 sequence (P10721 26-976): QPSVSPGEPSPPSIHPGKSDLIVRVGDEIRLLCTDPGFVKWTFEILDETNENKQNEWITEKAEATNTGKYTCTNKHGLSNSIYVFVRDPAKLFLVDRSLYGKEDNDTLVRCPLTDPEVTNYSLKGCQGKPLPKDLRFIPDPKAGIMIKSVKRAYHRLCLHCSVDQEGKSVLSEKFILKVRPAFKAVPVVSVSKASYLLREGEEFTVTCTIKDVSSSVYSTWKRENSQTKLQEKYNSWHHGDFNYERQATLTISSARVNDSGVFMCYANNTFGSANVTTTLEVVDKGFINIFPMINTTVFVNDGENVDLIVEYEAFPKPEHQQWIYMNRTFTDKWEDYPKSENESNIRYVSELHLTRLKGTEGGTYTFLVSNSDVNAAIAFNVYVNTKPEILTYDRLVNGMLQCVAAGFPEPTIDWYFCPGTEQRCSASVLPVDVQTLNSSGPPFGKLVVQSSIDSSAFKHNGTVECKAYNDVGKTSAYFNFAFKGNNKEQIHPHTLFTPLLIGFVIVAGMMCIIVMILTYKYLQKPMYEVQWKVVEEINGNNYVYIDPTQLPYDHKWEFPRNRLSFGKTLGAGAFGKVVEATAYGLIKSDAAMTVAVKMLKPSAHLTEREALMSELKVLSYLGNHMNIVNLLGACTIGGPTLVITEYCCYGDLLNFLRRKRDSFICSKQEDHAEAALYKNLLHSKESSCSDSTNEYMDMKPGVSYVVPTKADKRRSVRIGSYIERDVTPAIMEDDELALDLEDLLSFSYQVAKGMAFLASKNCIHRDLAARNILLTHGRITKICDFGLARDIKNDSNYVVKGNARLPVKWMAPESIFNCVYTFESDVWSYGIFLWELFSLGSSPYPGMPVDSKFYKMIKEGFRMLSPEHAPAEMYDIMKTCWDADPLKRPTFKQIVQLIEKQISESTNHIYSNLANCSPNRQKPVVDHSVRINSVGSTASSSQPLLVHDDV
Method in brief: as §1

SMILES	Kd (CSF1R [1]) [nM]	IC50 (CSF1R [2]) [nM]	Kd (FLT3) [nM]	Kd (PDGFRβ) [nM]	Kd (KIT) [nM]	IC50 (M-NFS-60 cells) [nM]
NCc1cnc2c(c1)ncn2Cc1ccc2nc(N[C@@H]3CCCC[C@H]3O)sc2c1 [Example 91, (1R,2R)-2-((6-((6-(aminomethyl)-3H-imidazo[4,5-b]pyridin-3-yl)methyl)benzo[d]thiazol-2-yl)amino)cyclohexanol acetate]	> 50	> 500	≤ 200	50 to 500	100 to 500	50 to 400
CCOc1ccccc1Nc1nc2ccc(Cn3cnc4cc(OC)c(OC)cc43)cc2s1 [Example 27, 6-((5,6-dimethoxy-1H-benzo[d]imidazol-1-yl)methyl)-N-(2-ethoxyphenyl)benzo[d]thiazol-2-amine]	5 to 20	50 to 200	1000 to 5000	50 to 500	100 to 500	50 to 400
COc1cc2ncn(Cc3ccc4nc(NCc5ccccc5)sc4c3)c2cc1OC [Example 13, N-benzyl-6-((5,6-dimethoxy-1H-benzo[d]imidazol-1-yl)methyl)benzo[d]thiazol-2-amine]	5 to 20	50 to 200	1000 to 5000	50 to 500	100 to 500	400 to 1500

Continued, in another order:

Kd (CSF1R [1]) [nM]	IC50 (CSF1R [2]) [nM]	Kd (FLT3) [nM]	Kd (PDGFRβ) [nM]	Kd (KIT) [nM]	SMILES	IC50 (M-NFS-60 cells) [nM]
5 to 20	50 to 200	≤ 200	≤ 50	≤ 100	COc1cc2ncn(Cc3ccc4nc(NCC5CCCCC5)sc4c3)c2cc1OC [Example 28, N-(cyclohexylmethyl)-6-((5,6-dimethoxy-1H-benzo[d]imidazol-1-yl)methyl)benzo[d]thiazol-2-amine]	50 to 400
5 to 20	50 to 200	1000 to 5000	≤ 50	≤ 100	CNC(=O)c1cnc2c(c1)ncn2Cc1ccc2nc(N[C@@H]3CCCC[C@H]3O)sc2c1 [Example 89, 3-((2-(((1R,2R)-2-hydroxycyclohexyl)amino)benzo[d]thiazol-6-yl)methyl)-N-methyl-3H-imidazo[4,5-b]pyridine-6-carboxamide]	50 to 400
5 to 20	50 to 200	> 5000	50 to 500	> 2000	Cn1cc(-c2nccn(Cc3ccc4nc(N[C@@H]5CCCC[C@H]5O)sc4c3)c2=O)cn1 [Example 103, 1-((2-(((1R,2R)-2-hydroxycyclohexyl)amino)benzo[d]thiazol-6-yl)methyl)-3-(1-methyl-1H-pyrazol-4-yl)pyrazin-2(1H)-one]	50 to 400
